Laboratory results reported in patent US3969385A, “Ethyl 10-methoxy-3,7,11-trimethyldodeca-2,4-dienoate” (Zoecon Corporation, priority 1974, dated 1976).

What was measured:
Assay type in all cases: in vivo
[1] = system: Greater Wax Moth (Galleria mellonella) pupae; assay: Greater Wax Moth (Galleria mellonella) pupae, retention of pupal characters (graded-response score); details: for ID50: Galleria mellonella pupae <24 h old, 1 μl acetone solution applied to mouth-parts, scored after 10 days at 31°, 50% effect level; for Galleria ID50: Table 1 summary
Experimental: Greater Wax Moth (Galleria mellonella) pupae less than 24-hours old were collected after mature larvae from a mass colony were allowed to pupate in glass tubes treated with Siliclad solution (modification of a technique described by De Wilde et al., 1968) and then freed of the cocoon with a dilute Chlorox solution. Starvation of mature larvae was employed to produce highly synchronous pupation. One microliter of acetone solution containing 100, 10, 1, 0.1, 0.01, or 0.001μg of compound was applied to the mouth-parts of each test pupa. In each test series, the control pupae were treated only with 1 microliter of acetone. Treated pupae were allowed to develop for 10 days at 31° and then scored for both retention of pupal characters and adult emergence. For the retention of pupal characters, the following scoring system was used: 0=normal adult; 1=minor pupal rudimentary mandibles only; 2=as in 1, but also pupal cuticle patches at the base of the proboscis; 3=extensive pupal cuticle formation at base of proboscis, slight pupal characters in intersegmental membranes in legs; 4=proboscis entirely pupal, larger than normal, legs with extensive pupal zones; 5=merging pupal bands on legs, specimen with only a few adult setae, essentially "a second pupa."
The graded-response score was calculated as a percentage of the maximum attainable (n×5) and plotted against the dose on semilogarithmic paper. The ID50 dose is taken from the intersection of this plotted line with the 50% effect level.

Philosamia cynthia eggs = assay: Philosamia cynthia eggs, hatch prevention; details: Table 1 summary
Experimental: Philosamia cynthia eggs less than 24-hours old were removed from the colony and placed on black electrical tape, 15 eggs per tape. One microliter of acetone solution containing […] of compound was applied to each egg. The control eggs were treated only with acetone. The eggs were kept at 28°C for 10 days at which time the number of eggs hatched was observed and plotted against the dosed on semilogarithmic paper. The ID50 dose is taken from the intersection of this plotted line with the 50% hatch prevented line.

[2] = system: Tobacco budworm (Heliothis virescens) larvae; assay: Tobacco budworm (Heliothis virescens) larvae, diet test, morphogenetic scoring; details: for ID50: Heliothis virescens unfed first instar larvae, compound mixed in diet, 25°, 16 hr photophase; for Heliothis ID50: Table 1 summary, in diet
Experimental: Tobacco budworm (Heliothis virescens) larvae were reared in mass culture on a modified Van der Zandt artificial diet based on agar, lima beans, split peas, torula yeast plus vitamins, minerals and bacteriostatic additives. Compounds to be tested were mixed as acetone solutions with this diet while it was still warm and not yet solidified (7.5 ml. of medium in 15 ml. tubes). Unfed first instar larvae were collected from the mass rearing and distributed in the glass tubes (one larva per tube, 15 tubes per dose level). The tubes with larvae were then capped with a firm cotton plug and placed on racks in a culture room at 25° and 16 hr photophase (low intensity fluorescent light). The normal interval until pupation under these conditions was ca. 16 days.
Individual specimens were preserved in ethanol within a few days after pupation and stored until the entire series was thus preserved. The test results were then evaluated with the following scoring system: 0= normal pupa; 1=pupa of normal shape and appearance except for very minor abnormalities such as minute rudiments of larval mouthparts, larval tubercles, etc. The ultimate viability of these pupa was not investigated; 2=unviable intermediates between larvae and pupae ranging from almost perfect supernumerary larval instars (frequently with some pupal cuticle on the antennae only) to pupae with pronounced prolegs, patches of larval cuticle, etc. […] The results were added and expressed as a percentage of the possible total. ID50 doses were determined by interpolation on semilogarithmic paper. Dead larvae were generally excluded from the score, unless death was obviously a consequence of morphogenetic abnormalities and the specimens could be scored as above.

CCOC(=O)C=C(C)C=CCC(C)CCC(OC)C(C)C (stereo not shown) [ethyl 10-methoxy-3,7,11-trimethyldodeca-2,4-dienoate]
ID50 [1]: 0.0030 μg per pupa
Galleria ID50 [1]: 0.0030 μg/pupa
Cynthia ID50 (Philosamia cynthia eggs): 0.000032 μg/egg
ID50 [2]: 0.024 parts per million
Heliothis ID50 [2]: 0.024 ppm

CCOC(=O)C=C(C)C=CCC(C)CCCC(C)(C)OC (stereo not shown) [ethyl 11-methoxy-3,7,11-trimethyldodeca-2,4-dienoate]
ID50 [1]: 0.180 μg per pupa
Galleria ID50 [1]: 0.180 μg/pupa
Cynthia ID50 (Philosamia cynthia eggs): 0.00077 μg/egg
ID50 [2]: 0.340 parts per million
Heliothis ID50 [2]: 0.340 ppm
